This experiment addresses T1, FXR (Homo sapiens, UniProt Q96RI1).
T1 sequence (Q96RI1 1-486): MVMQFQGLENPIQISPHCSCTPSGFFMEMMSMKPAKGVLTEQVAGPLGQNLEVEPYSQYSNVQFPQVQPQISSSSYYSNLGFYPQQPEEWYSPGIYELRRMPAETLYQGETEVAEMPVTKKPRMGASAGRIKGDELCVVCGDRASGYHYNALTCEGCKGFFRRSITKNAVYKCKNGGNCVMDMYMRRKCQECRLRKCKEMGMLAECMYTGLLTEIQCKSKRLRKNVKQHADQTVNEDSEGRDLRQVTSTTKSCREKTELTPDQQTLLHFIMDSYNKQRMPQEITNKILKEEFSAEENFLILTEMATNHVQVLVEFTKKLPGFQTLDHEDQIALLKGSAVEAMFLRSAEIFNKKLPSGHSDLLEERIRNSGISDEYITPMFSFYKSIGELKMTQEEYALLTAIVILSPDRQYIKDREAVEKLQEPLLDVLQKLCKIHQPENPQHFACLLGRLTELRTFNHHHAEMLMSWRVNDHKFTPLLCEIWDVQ
In words: FXR Agonist Assay (Gaussia luciferase reporter in cells). In kind it is cell-based. Particulars: 20 hours incubation, 10-point dilution, duplicate. The protocol:
Starting from 3.33 mM of compound in DMSO solution, a 10-point 3-fold serial dilution was made by diluting 5 μL of compound into 10 μL of DMSO. The serially diluted compound was then diluted 1:33 into DMEM. This medium was then diluted ten-fold into the culture medium with the cells (10 μL/well). All concentration points are assayed in duplicate. Plates were incubated at 37° C. for 20 hours. After the incubation, 20 μL of culture medium were removed from each well and mixed with 50 μL of assay solution (Pierce™ Gaussia Luciferase Flash Assay Kit). The luminescence was measured immediately after addition of the Luc substrate with an Envision microplate reader. The raw data was uploaded to CDD and dose-response curves were generated using the Levenberg-Marquardt algorithm integrated into CDD. A negative control DMSO is included on each plate and used to normalize the data with the CDD built-in normalization function.

SMILES strings stand for the structures. Where only a bound is given, the exact number is not on record here.

`CC(C)OC(=O)C1=CN(C(=O)c2ccc(OCCN(C)C)cc2)CC(C)(C)c2c(C(F)(F)F)n[nH]c21` [Compound 1, (E)-isopropyl 6-(4-(2-(dimethylamino)ethoxy)benzoyl)-4,4-dimethyl-3-(trifluoromethyl)-1,4,5,6-tetrahydropyrazolo[3,4-d]azepine-8-carboxylate] came in with an EC50 of 200 to 1000 nM.

Take `CC(C)OC(=O)C1=CN(C(=O)c2ccc(OCCn3ccnc3)cc2)CC(C)(C)c2c(C(F)(F)F)n[nH]c21` [Compound 2, (E)-isopropyl 6-(4-(2-(1H-imidazol-1-yl)ethoxy)benzoyl)-4,4-dimethyl-3-(trifluoromethyl)-1,4,5,6-tetrahydropyrazolo[3,4-d]azepine-8-carboxylate]: the EC50 is below 200 nM.

Regarding `CC(C)OC(=O)C1=CN(C(=O)c2ccc(OCCN3CCN(C)CC3)cc2)CC(C)(C)c2c(C(F)(F)F)n[nH]c21` [Compound 3, (E)-isopropyl 4,4-dimethyl-6-(4-(2-(4-methylpiperazin-1-yl)ethoxy)benzoyl)-3-(trifluoromethyl)-1,4,5,6-tetrahydropyrazolo[3,4-d]azepine-8-carboxylate], the EC50 was in the range of 200 to 1000 nM.

Compound `CC(C)OC(=O)C1=CN(C(=O)c2ccc(OCCN3CCCC3)cc2)CC(C)(C)c2c(C(F)(F)F)n[nH]c21` [Compound 4, (E)-isopropyl 4,4-dimethyl-6-(4-(2-(pyrrolidin-1-yl)ethoxy)benzoyl)-3-(trifluoromethyl)-1,4,5,6-tetrahydropyrazolo[3,4-d]azepine-8-carboxylate] yielded a concentration for a half-maximal effect (EC50) of 1000 to 10000 nM.

Take `CC(C)OC(=O)C1=CN(C(=O)c2cc(F)c(OCCN3CCOCC3)c(F)c2)CC(C)(C)c2c(C(F)(F)F)n[nH]c21` [Compound 5, (E)-isopropyl 6-(3,5-difluoro-4-(2-morpholinoethoxy)benzoyl)-4,4-dimethyl-3-(trifluoromethyl)-1,4,5,6-tetrahydropyrazolo[3,4-d]azepine-8-carboxylate]: the EC50 is below 200 nM.

The values above are taken from US20200325140A1, “FUSED BICYCLIC COMPOUNDS FOR THE TREATMENT OF DISEASE” (Akarna Therapeutics, Ltd., priority 2016, published 2020).
